Among the test systems are SK-MEL-5 melanoma; A549 NSCLC; MALME-3M melanoma; NCI-H460 lung; OVCAR-5 ovarian; SNB-19 CNS; UACC-257 melanoma; HCT-116 colon; IGROV1 ovarian; RPMI-8226 leukemia.
Test in all cases: NCI tumour cell line growth inhibition, 48 h

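Interpolation was linear, between the two tested concentrations surrounding the appropriate level; five concentrations were tested over 48 hours in 96-well plates. The concentration for 50% growth inhibition is given as GI50. TGI is the concentration that stops growth completely.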

With `COc1cc(/C=C2\CC3C4CC=C5C[C@@H](OC(C)=O)CC[C@]5(C)C4CC[C@]3(C)C2=O)ccc1OCCN1CCCCC1` (some centres not stated), the GI50 with SK-MEL-5 melanoma is 1.71 µM; in the assay on A549 NSCLC, 3.42 µM; in the assay with MALME-3M melanoma, 1.66 µM; with NCI-H460 lung, 3.02 µM; in the assay with OVCAR-5 ovarian, 3.83 µM; in the assay with SNB-19 CNS it was 8.46 µM. Besides, the GI50 with UACC-257 melanoma was 3.85 µM. The TGI is 3.08 µM in the assay with SK-MEL-5 melanoma; > 100 µM with A549 NSCLC; 3.35 µM in the assay on MALME-3M melanoma; 11.6 µM in the assay on NCI-H460 lung; 7.42 µM with OVCAR-5 ovarian; 43.3 µM in the assay with SNB-19 CNS. The TGI in the assay on UACC-257 melanoma was > 100 µM.

Turning to `COC1CCC(OS(C)(=O)=O)C(CO)O1` (configuration not stated), the TGI in the assay with HCT-116 colon, with IGROV1 ovarian, in the assay on A549 NSCLC, in the assay with MALME-3M melanoma, with NCI-H460 lung and in the assay on OVCAR-5 ovarian was > 100 µM in each case. For the same compound, the TGI in the assay with UACC-257 melanoma was > 100 µM.

As to `C=C(c1ccc(OC)c(/C=C/C(=O)c2ccc3c(c2)OCO3)c1)c1cc(OC)c(OC)c(OC)c1`, the GI50 with SK-MEL-5 melanoma was 1.97 µM; with IGROV1 ovarian it was 4.31 µM; with A549 NSCLC, 3.54 µM; in the assay with MALME-3M melanoma it was > 100 µM; in the assay with RPMI-8226 leukemia it was 1.56 µM; in the assay with NCI-H460 lung, 2.34 µM. Further, the GI50 with OVCAR-5 ovarian was 4.4 µM; in the assay with SNB-19 CNS it was 2.79 µM; in the assay on UACC-257 melanoma, 6.69 µM. In addition, the TGI with SK-MEL-5 melanoma is 6.71 µM; in the assay on IGROV1 ovarian it was > 100 µM; in the assay with A549 NSCLC, > 100 µM; with MALME-3M melanoma, > 100 µM; in the assay on RPMI-8226 leukemia, 7.39 µM; in the assay on NCI-H460 lung it was 6.21 µM. Besides, the TGI in the assay with OVCAR-5 ovarian, in the assay with SNB-19 CNS and with UACC-257 melanoma was > 100 µM in each case.

Regarding `CSc1ccc2c(cc1=O)[C@@H](NC(=O)c1cccc([N+](=O)[O-])c1)CCc1cc(O)c(O)c(O)c1-2`, the TGI in the assay on HCT-116 colon is 35.9 µM; in the assay with IGROV1 ovarian, > 100 µM; with A549 NSCLC, > 100 µM; with MALME-3M melanoma, > 100 µM; with RPMI-8226 leukemia, > 100 µM; with NCI-H460 lung it was > 100 µM. Besides, the TGI in the assay with OVCAR-5 ovarian, in the assay with SNB-19 CNS and in the assay on UACC-257 melanoma was > 100 µM throughout.

Consider `O=C(O)CSc1n[nH]c(=O)[nH]c1=O`, for which the TGI in the assay on SK-MEL-5 melanoma, in the assay with HCT-116 colon, in the assay with IGROV1 ovarian, with A549 NSCLC, with MALME-3M melanoma and in the assay with RPMI-8226 leukemia was > 100 µM throughout. Also, the TGI in the assay on NCI-H460 lung, in the assay with OVCAR-5 ovarian and with SNB-19 CNS was > 100 µM in each case.

As for `NC(=O)NNC(=O)CCn1[nH]c(=O)c(Cl)c(Cl)c1=O`, the TGI with SK-MEL-5 melanoma, in the assay on HCT-116 colon, in the assay with IGROV1 ovarian, with A549 NSCLC, in the assay with MALME-3M melanoma and with NCI-H460 lung was > 100 µM throughout. Moreover, the TGI with OVCAR-5 ovarian, in the assay on SNB-19 CNS and with UACC-257 melanoma was > 100 µM throughout.

Turning to `OCC1C(OCc2ccccc2)C(OCc2ccccc2)C(OCc2ccccc2)CN1Cc1ccccc1` (configuration not stated), the TGI in the assay on HCT-116 colon is 81.5 µM; in the assay with IGROV1 ovarian, > 100 µM; with A549 NSCLC, > 100 µM; in the assay with MALME-3M melanoma, 91.5 µM; in the assay with NCI-H460 lung, 48.1 µM; in the assay with OVCAR-5 ovarian, > 100 µM. Further, the TGI was > 100 µM in the assay with SNB-19 CNS and 81 µM in the assay with UACC-257 melanoma.

With `CCN(CC)CCCNc1nccc2c(C)c3c(cc12)c1cnccc1n3C`, the TGI in the assay with SK-MEL-5 melanoma was 1.82 µM; in the assay with HCT-116 colon, 0.378 µM; in the assay on IGROV1 ovarian it was 2.75 µM; in the assay with A549 NSCLC, 1.37 µM; with NCI-H460 lung, 0.14 µM; with SNB-19 CNS, 1.51 µM.

With `Oc1ccc(C=Nc2ccccc2O)cc1`, the TGI is 62.7 µM with SK-MEL-5 melanoma; > 100 µM with HCT-116 colon; > 100 µM with IGROV1 ovarian; > 100 µM with A549 NSCLC; > 100 µM in the assay on RPMI-8226 leukemia; > 100 µM in the assay on NCI-H460 lung. Further, the TGI in the assay with OVCAR-5 ovarian is > 100 µM; in the assay on SNB-19 CNS, > 100 µM; in the assay on UACC-257 melanoma it was 65.3 µM.

With `O=C1C=C(Nc2ccc(Cl)cc2Cl)c2ccccc2C1=O`, the TGI is > 100 µM with HCT-116 colon; > 100 µM in the assay with IGROV1 ovarian; > 100 µM in the assay with A549 NSCLC; 71 µM in the assay on MALME-3M melanoma; > 100 µM with RPMI-8226 leukemia; > 100 µM in the assay on NCI-H460 lung. Also, the TGI in the assay with OVCAR-5 ovarian, in the assay on SNB-19 CNS and in the assay with UACC-257 melanoma was > 100 µM throughout.

For the compound `OC(CNc1ccnc2cc(Cl)ccc12)CNc1ccnc2cc(Cl)ccc12`, the GI50 is 1.58 µM in the assay with SK-MEL-5 melanoma; 1.72 µM in the assay with HCT-116 colon; 10.9 µM with IGROV1 ovarian; 4.49 µM with A549 NSCLC; 3 µM with RPMI-8226 leukemia; 1.83 µM in the assay on NCI-H460 lung. Moreover, the figures for the GI50 with OVCAR-5 ovarian and in the assay on UACC-257 melanoma were 1.73 µM and 1.87 µM, respectively. Also, the TGI in the assay with SK-MEL-5 melanoma was 3.02 µM; with HCT-116 colon, 3.09 µM; in the assay with IGROV1 ovarian, 36.8 µM; in the assay on A549 NSCLC, 21.2 µM; in the assay on RPMI-8226 leukemia it was 11.1 µM; in the assay with NCI-H460 lung, 3.52 µM. In addition, the values for the TGI with OVCAR-5 ovarian and in the assay on UACC-257 melanoma were 3.42 µM and 3.49 µM, respectively.

On to `CC(=O)Nc1ccc(/C=C/C(=O)c2sc(-c3cccnc3)nc2C)cc1`, for which the TGI in the assay on SK-MEL-5 melanoma, in the assay with IGROV1 ovarian, with A549 NSCLC, with MALME-3M melanoma, with RPMI-8226 leukemia and in the assay on NCI-H460 lung was > 100 µM throughout. Besides, the TGI with OVCAR-5 ovarian and in the assay with UACC-257 melanoma was > 100 µM throughout.

(Values after PubChem BioAssay (NCI).)
